Source: publication PMC5386260, “Acute development of cortical porosity and endosteal naïve bone formation from the daily but not weekly short-term administration of PTH in rabbit” (PLoS ONE, 2017)

Experiments:
endosteal bone collagen = settings: rabbit, in vivo
Method: (§1) Calcein (Dojindo Laboratories, Kumamoto, Japan) was subcutaneously injected into each animal at a dose of 10 mg/kg body weight on days 13 and 5 before sacrifice for bone double labeling (1-7-1-3). After the dosing period, the animals were euthanized by exsanguination under anesthesia using thiopental. The left and right tibiae were collected for a micro-CT analysis and histomorphometry, respectively. The kidneys, thyroid and parathyroid of all animals were collected and fixed in 10% neutral buffered formalin for a histopathological examination. The left tibiae were packed in plastic bags and stored at -30°C until use in a micro-CT analysis and mechanical testing. […]
An upright multi-photon excited microscopy system (A1RMP, Nikon Corporation, Japan) situated at the Imaging core facility of The Institute of Medical Science, The University of Tokyo was employed to acquire bone collagen-derived SHG signals and two-photon excited auto-fluorescence signals from Calcein-labeled undecalcified bone sections. […] The detection wavelengths were 420–425 nm and 500–550 nm for the acquisition of collagen-derived SHG signals and auto-fluorescence signals from soft tissue, respectively. […]

[1] = tested on: kidneys, thyroid and parathyroid; assay: Histopathological examination of kidney, thyroid and parathyroid; settings: rabbit, in vivo
Method: Calcein (Dojindo Laboratories, Kumamoto, Japan) was subcutaneously injected into each animal at a dose of 10 mg/kg body weight on days 13 and 5 before sacrifice for bone double labeling (1-7-1-3). After the dosing period, the animals were euthanized by exsanguination under anesthesia using thiopental. The left and right tibiae were collected for a micro-CT analysis and histomorphometry, respectively. The kidneys, thyroid and parathyroid of all animals were collected and fixed in 10% neutral buffered formalin for a histopathological examination. The left tibiae were packed in plastic bags and stored at -30°C until use in a micro-CT analysis and mechanical testing. The right tibiae were fixed in 70% ethanol, stained with Villanueva bone stain, dehydrated in a graded ethanol series, defatted in acetone, and embedded in polymethyl methacrylate (Wako Pure Chemical Industries, Osaka, Japan). Thin ground sections of 10–20 μm in thickness were prepared using a micro cutting machine and a grinding machine (EXAKT, Germany) from a cross-section at a plane that was 3 mm proximal from the tibiofibular junction, and were subjected to bone histomorphometry. Right iliac crest were also fixed in 70% ethanol and processed for Vilanueva bone stain, dehydration, defattation, polymethyl methacrylate embedding and sectioning to 5 μm for three-dimensional second harmonic generation (3D-SHG) imaging. […]

renal function = settings: rabbit, in vivo
Method: The serum samples collected for measurement of bone metabolic markers were also subjected to biochemical analysis to examine renal function. Serum blood urea nitrogen (BUN) and creatinine were measured using an autoanalyzer (Hitachi 7180 chemistry analyzer; Hitachi Ltd, Tokyo, Japan). Blood samples in all groups were collected at 0, 6, 24 hours after the administration of TPTD on days 1 and 22. Blood samples in the C, […] and […] groups were also collected at days 3 and 7 after on the 1st and 22nd days of administration. The samples were centrifuged at 1700 x g, at 4°C for 15 minutes in tubes with clot activator and serum was collected in order to measure the concentration of osteocalcin.

[2] = tested on: endosteal surface of rabbit tibiae; assay: DIC bright field and deconvolution fluorescence imaging of tibia sections; format: in vivo; settings: daily administration (D20 and D40), 4 weeks
Method: as §1
Calcein-labeled undecalcified bone sections were subjected to imaging acquisition using a microscopy system, ECLIPSE Ni (Nikon, Tokyo, Japan) equipped with differential interference contrast microscopy (DIC) and objectives (Nikon), as follows: Plan Apo λ 10x (numerical aperture [N.A.] = 0.45), Plan Apo λ 20x (N.A. = 0.75), and Plan Apo λ 40x (N.A. = 0.95). The fluorescence signals were obtained using filter sets, GFP-B (excitation: 460–500 nm, DM: 505 nm, emission: 510–560 nm; Nikon) for calcein, and TxRed (excitation: 540–580 nm, DM: 595 nm, emission: 600–660 nm; Nikon) for auto-fluorescence derived from soft tissue. […] The fluorescence and DIC images were sequentially acquired, with a pixel size of 0.64 μm. […]

CC[C@H](C)[C@H](NC(=O)[C@H](CCC(=O)O)NC(=O)[C@H](CO)NC(=O)[C@@H](NC(=O)[C@@H](N)CO)C(C)C)C(=O)N[C@@H](CCC(N)=O)C(=O)N[C@@H](CC(C)C)C(=O)N[C@@H](CCSC)C(=O)N[C@@H](Cc1cnc[nH]1)C(=O)N[C@@H](CC(N)=O)C(=O)N[C@@H](CC(C)C)C(=O)NCC(=O)N[C@@H](CCCCN)C(=O)N[C@@H](Cc1cnc[nH]1)C(=O)N[C@@H](CC(C)C)C(=O)N[C@@H](CC(N)=O)C(=O)N[C@@H](CO)C(=O)N[C@@H](CCSC)C(=O)N[C@@H](CCC(=O)O)C(=O)N[C@@H](CCCN=C(N)N)C(=O)N[C@H](C(=O)N[C@@H](CCC(=O)O)C(=O)N[C@@H](Cc1c[nH]c2ccccc12)C(=O)N[C@@H](CC(C)C)C(=O)N[C@@H](CCCN=C(N)N)C(=O)N[C@@H](CCCCN)C(=O)N[C@@H](CCCCN)C(=O)N[C@@H](CC(C)C)C(=O)N[C@@H](CCC(N)=O)C(=O)N[C@@H](CC(=O)O)C(=O)N[C@H](C(=O)N[C@@H](Cc1cnc[nH]1)C(=O)N[C@@H](CC(N)=O)C(=O)N[C@@H](Cc1ccccc1)C(=O)O)C(C)C)C(C)C [TPTD, Teriparatide]
endosteal bone collagen pattern (3D-SHG) (endosteal bone collagen): amorphously short fibers | general histopathological examination, toxic effects [1]: No obvious toxic effects were observed in any specimens | level of serum blood urea nitrogen (BUN), effect of TPTD (renal function): not significantly affected | level of serum creatinine, effect of TPTD (renal function): not significantly affected | microscopic findings at the endosteal surface [2]: development of bone marrow fibrosis and poorly mineralized and disorganized bone formation
